Results published in PMC6747015, “Structure–function study of a novel inhibitor of the casein kinase 1 family in Arabidopsis thaliana” (Plant Direct, 2019).

How the values were obtained:
[1] = system: PRR7; experiment: RT-qPCR of the CK1 downstream gene PRR7; format: in vivo, Arabidopsis; conditions: 6 hr
Method: Arabidopsis Col‐0 seedlings that had been grown under constant light conditions for […] were immersed in 10 or 50 µM of the GSK‐3, SHAGGY‐related, and BIN2 kinase inhibitor Bikinin (SML0094, Sigma) (De Rybel et al., 2009), […], or DMSO as control for 6 hr. Three biological replicates were used for each assay. Harvested seedlings were frozen in liquid nitrogen and crushed with zirconia beads in a Tissue Lyser II, and RNA was isolated with Illustra RNAspin (25‐0500‐72, GE Healthcare). RT‐qPCR was performed as described previously (Nakamichi et al., 2010) using an Eco Real‐Time PCR System (Illumina). Gene expression was normalized against IPP2, and maximal values were set to 1. Primers for detecting IPP2, PRR7, GR60ox2, and CPD were described previously (De Rybel et al., 2009; Kamioka et al., 2016).
Because the ATSK family was identified by the molecular probe assay as potential targets of AMI‐331, even though the affinities between AMI‐331 and ATSKs were not as high as between AMI‐331 and CK1, we used the ATSK inhibitor Bikinin to determine if AMI‐331 treatment affects the expression of genes downstream of ATSKs (De Rybel et al., 2009). Four‐day‐old Arabidopsis seedlings grown under constant light conditions were treated with Bikinin or AMI‐331 for 6 hr, and mRNA extracted from seedlings samples was analyzed by RT‐qPCR.

[2] = molecular target: T1, Membrane protein AT5G40670 (Arabidopsis thaliana, UniProt P57758); experiment: AMI‐329 bead binding with AMI‐331 competitor, membrane protein AT5G40670
T1 construct: from tissue; host or cells: Arabidopsis seedlings, two weeks old
Method: (§1) Screening for proteins bound to AMI‐329 beads was done by a method similar to what has previously been described (Uehara et al., 2019). Briefly, two‐week‐old seedlings grown under LD conditions were harvested at time points ZT2, ZT6, ZT9, and ZT17, and stored at −80°C. Proteins from the frozen plant samples were incubated with 0, 5, or 50 µM of AMI‐331 at 4°C for 30 min with rotary mixing. Two technical replicates were used for each experiment. PBS‐washed AMI‐329 beads were added to the protein samples and gently rotated at 4°C for 1 hr. AMI‐329 bead resins were washed with bead buffer (Uehara et al., 2019) six times. The washed resins were suspended in SDS sample buffer and boiled for 8 min. Protein samples were in‐gel‐digested as previously described (Uehara et al., 2019). Peptides were analyzed with a Q Exactive hybrid quadrupole‐orbitrap mass spectrometer (Thermo Fisher Scientific), as described previously (Uehara et al., 2019). […]
(§2) However, another possible mechanism for the strong AMI‐331 biological activity in vivo is that it targets proteins other than the CK1 family for period lengthening. […] It is noteworthy that kinase AT4G08800 is very similar to the CKL family, but the ATP‐binding pocket of mammalian CK1 as determined by its crystal structure (Shinohara et al., 2017) was absent from AT4G08800, as shown in an Araport 11 model (https://www.araport.org). […]

[3] = system: all members of the CK1 family and an additional ten non‐CK1 proteins; experiment: AMI‐329 bead binding with AMI‐331 competitor, the 23 AMI‐331‐bound proteins; design: species or system Arabidopsis thaliana
Method: as §1, §2

[4] = system: MPK family; experiment: AMI‐329 bead binding with AMI‐331 competitor, MPK family; design: species or system Arabidopsis thaliana
Method: Screening for proteins bound to AMI‐329 beads was done by a method similar to what has previously been described (Uehara et al., 2019). Briefly, two‐week‐old seedlings grown under LD conditions were harvested at time points ZT2, ZT6, ZT9, and ZT17, and stored at −80°C. Proteins from the frozen plant samples were incubated with 0, 5, or 50 µM of AMI‐331 at 4°C for 30 min with rotary mixing. Two technical replicates were used for each experiment. PBS‐washed AMI‐329 beads were added to the protein samples and gently rotated at 4°C for 1 hr. AMI‐329 bead resins were washed with bead buffer (Uehara et al., 2019) six times. The washed resins were suspended in SDS sample buffer and boiled for 8 min. Protein samples were in‐gel‐digested as previously described (Uehara et al., 2019). Peptides were analyzed with a Q Exactive hybrid quadrupole‐orbitrap mass spectrometer (Thermo Fisher Scientific), as described previously (Uehara et al., 2019). MS/MS spectra were interpreted, and peak lists were generated using Proteome Discoverer 2.0.0.802 (Thermo Fisher Scientific). Searches were performed using SEQUEST (Thermo Fisher Scientific) against the Arabidopsis thaliana (TAIR TaxID = 3,702) peptide sequence database. […]
To examine other potential targets of AMI‐331, we analyzed the spectra for PHA767491 target proteins (Uehara et al., 2019). […]

[5] = molecular target: T2, CKL7 (AT5G44100) (Arabidopsis thaliana, UniProt Q9FFH8); experiment: AMI‐329 bead binding with AMI‐331 competitor, CKL7
T2 construct: from tissue; host or cells: Arabidopsis seedlings, two weeks old
Method: as §1, §2

[6] = molecular target: T3, CKL9 (AT1G03930) (Arabidopsis thaliana, UniProt Q9ZWB3); experiment: AMI‐329 bead binding with AMI‐331 competitor, CKL9
T3 construct: from tissue; host or cells: Arabidopsis seedlings, two weeks old
Method: as §1, §2

[7] = molecular target: T4, HYD1 (AT1G20050) (Arabidopsis thaliana, UniProt O48962); experiment: AMI‐329 bead binding with AMI‐331 competitor, HYD1
T4 construct: from tissue; host or cells: Arabidopsis seedlings, two weeks old
Method: as §1, §2

T4 sequence (O48962 whole entry): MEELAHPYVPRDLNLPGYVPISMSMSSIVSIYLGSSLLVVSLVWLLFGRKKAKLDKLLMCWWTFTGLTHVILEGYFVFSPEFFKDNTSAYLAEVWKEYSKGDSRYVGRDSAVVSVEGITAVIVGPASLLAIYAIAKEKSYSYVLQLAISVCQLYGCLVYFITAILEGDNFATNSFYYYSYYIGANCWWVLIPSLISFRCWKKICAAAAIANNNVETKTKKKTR
T2 sequence (Q9FFH8 whole entry): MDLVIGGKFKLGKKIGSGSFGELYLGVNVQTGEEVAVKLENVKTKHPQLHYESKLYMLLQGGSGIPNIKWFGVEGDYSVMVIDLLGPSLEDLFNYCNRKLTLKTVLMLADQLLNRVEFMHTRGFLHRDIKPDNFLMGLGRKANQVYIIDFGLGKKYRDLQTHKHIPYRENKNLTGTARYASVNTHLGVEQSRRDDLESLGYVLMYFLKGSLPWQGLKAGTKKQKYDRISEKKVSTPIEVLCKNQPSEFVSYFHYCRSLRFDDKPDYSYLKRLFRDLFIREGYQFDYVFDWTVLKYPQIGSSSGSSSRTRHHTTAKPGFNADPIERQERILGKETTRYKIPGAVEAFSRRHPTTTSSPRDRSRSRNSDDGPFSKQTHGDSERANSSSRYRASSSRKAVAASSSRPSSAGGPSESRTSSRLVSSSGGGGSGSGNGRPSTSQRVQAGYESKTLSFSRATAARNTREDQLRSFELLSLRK
T3 sequence (Q9ZWB3 whole entry): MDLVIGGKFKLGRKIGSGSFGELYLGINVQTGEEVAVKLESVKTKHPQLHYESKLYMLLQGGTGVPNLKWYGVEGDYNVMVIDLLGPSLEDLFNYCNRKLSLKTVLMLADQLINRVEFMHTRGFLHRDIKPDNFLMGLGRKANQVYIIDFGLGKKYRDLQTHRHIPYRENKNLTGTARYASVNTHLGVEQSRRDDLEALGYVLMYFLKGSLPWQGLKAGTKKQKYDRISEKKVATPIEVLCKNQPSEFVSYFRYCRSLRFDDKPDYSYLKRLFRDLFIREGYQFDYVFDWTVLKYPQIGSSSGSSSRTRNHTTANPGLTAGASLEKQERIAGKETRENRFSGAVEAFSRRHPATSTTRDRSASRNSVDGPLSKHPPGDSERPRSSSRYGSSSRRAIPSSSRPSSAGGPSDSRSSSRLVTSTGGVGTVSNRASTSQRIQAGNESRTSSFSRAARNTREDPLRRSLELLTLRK
T1 sequence (P57758 whole entry): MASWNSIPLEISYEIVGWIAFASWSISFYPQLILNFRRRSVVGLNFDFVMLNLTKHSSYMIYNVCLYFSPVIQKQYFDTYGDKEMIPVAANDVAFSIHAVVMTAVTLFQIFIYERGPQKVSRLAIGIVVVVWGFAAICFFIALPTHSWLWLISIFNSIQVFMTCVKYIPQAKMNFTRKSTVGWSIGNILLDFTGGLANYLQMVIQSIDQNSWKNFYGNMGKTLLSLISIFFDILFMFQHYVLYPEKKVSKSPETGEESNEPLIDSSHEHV

C#CCn1c2c(c(Br)c1-c1ccncc1)C(=O)NCC2.Cl [AMI‐331]
PRR7 transcript abundance ([1]; 1 µM): significantly decreased | PRR7 transcript abundance ([1]; 5 and 25 µM): decreased | Spectra (PSMs) AMI‐329 beads bound ([2]; competitor AMI‐331 5 µM): 0 PSMs | Spectra (PSMs) AMI‐329 beads bound ([2]; competitor AMI‐331 50 µM): 0 PSMs | Spectra on AMI‐329 beads compared to the control sample without competitor ([3]; 5 µM AMI‐331 as competitor): 0% to 7% | Spectra on AMI‐329 beads ([3]; 50 µM AMI‐331 as competitor): absent | Spectra on AMI‐329 beads relative to 0 µM sample ([4]; 5 µM AMI‐331 as competitor): 13%–85% | Spectra on AMI‐329 beads relative to 0 µM sample ([4]; 50 µM AMI‐331 as competitor): 0%–31% | Spectra (PSMs) AMI‐329 beads bound ([5]; competitor AMI‐331 5 µM): 1 PSMs | Spectra (PSMs) AMI‐329 beads bound ([5]; competitor AMI‐331 50 µM): 0 PSMs | Spectra (PSMs) AMI‐329 beads bound ([6]; competitor AMI‐331 5 µM): 1 PSMs | Spectra (PSMs) AMI‐329 beads bound ([6]; competitor AMI‐331 50 µM): 0 PSMs | Spectra (PSMs) AMI‐329 beads bound ([7]; competitor AMI‐331 5 µM): 0 PSMs | Spectra (PSMs) AMI‐329 beads bound ([7]; competitor AMI‐331 50 µM): 0 PSMs
